The subject of assay [1] is TC-3 cell cultures. The assay can be described thus: Cellular import and intracellular persistence of fluorescein-labeled peptides in TC-3 cells. Format: cell-based. The conditions noted are these: 1 μM. The protocol: The ability of the L- and D-enantiomeric forms of TAT and TAT-IB1(s) peptides (“TAT-IB peptides”) to enter cells was evaluated. L-TAT, D-TAT, L-TAT-IB1(s), and D-TAT-IB1(s) peptides [SEQ ID NOs: 5, 6, 9 and 12, respectively] were labeled by N-terminal addition of a glycine residue conjugated to fluorescein. Labeled peptides (1 μM) were added to TC-3 cell cultures, which were maintained as described in Example 3. At predetermined times cells were washed with PBS and fixed for five minutes in ice-cold methanol-acetone (1:1) before being examined under a fluorescence microscope. Fluorescein-labeled BSA (1 μM, 12 moles/mole BSA) was used as a control.
Little to no signal was present at 48 hours.

In assay [2] the test system is recombinant JNK1, JNK2 and JNK3. The assay can be described thus: Solid phase kinase assay, phosphorylation of c-Jun, ATF2 and Elk1 by recombinant JNKs. Type of assay: biochemical. The protocol:
(§1) The effects of the peptides on JNKs-mediated phosphorylation of their target transcription factors were investigated in vitro. Recombinant and non activated JNK1, JNK2 and JNK3 were produced using a TRANSCRIPTION AND TRANSLATION rabbit reticulocyte lysate kit (Promega) and used in solid phase kinase assays with c-Jun, ATF2 and Elk1, either alone or fused to glutathione-S-transferase (GST), as substrates. Dose response studies were performed wherein L-TAT or L-TAT-IB1(s) peptides (0-25 μM) were mixed with the recombinant JNK1, JNK2, or JNK3 kinases in reaction buffer (20 mM Tris-acetate, 1 mM EGTA, 10 mM p-nitrophenyl-phosphate (pNPP), 5 mM sodium pyrophosphate, 10 mM p-glycerophosphate, 1 mM dithiothreitol) for 20 minutes. The kinase reactions were then initiated by the addition of 10 mM MgCl2 and 5 pCi ^33P-dATP and 1 μg of either GST-Jun (aa 1-89), GST-AFT2 (aa 1-96) or GST-ELK1 (aa 307-428). GST-fusion proteins were purchased from Stratagene (La Jolla, Calif.).
Ten μL of glutathione-agarose beads were also added to the mixture. Reaction products were then separated by SDS-PAGE on a denaturing 10% polyacrylamide gel. Gels were dried and subsequently exposed to X-ray films (Kodak). […] The ability of D-TAT, D-TAT-IB1(s) and L-TAT-IB1(s) peptides (0-250 μM dosage study) to inhibit GST-Jun (aa 1-73) phosphorylation by recombinant JNK1, JNK2, and JNK3 by were analyzed as described above. Overall, D-TAT-IB1(s) peptide decreased JNK-mediated phosphorylation of c-Jun, but at levels approximately 10-20 fold less efficiently than L-TAT-IB1(s).

Assay [3] deals with T1, JNK3 (Homo sapiens, UniProt P53779).
T1 construct: host or cells: cell-free: rabbit reticulocyte lysate, in vitro transcription and translation
The assay can be described thus: Solid phase kinase assay, JNK3 phosphorylation of Elk1. Type of assay: biochemical. The conditions noted are these: dose response 0-25 μM. The protocol:
as §1
Ten μL of glutathione-agarose beads were also added to the mixture. Reaction products were then separated by SDS-PAGE on a denaturing 10% polyacrylamide gel. Gels were dried and subsequently exposed to X-ray films (Kodak). […] The ability of D-TAT, D-TAT-IB1(s) and L-TAT-IB1(s) peptides (0-250 μM dosage study) to inhibit GST-Jun (aa 1-73) phosphorylation by recombinant JNK1, JNK2, and JNK3 by were analyzed as described above. […]

The test system of assay [4] is JNKs from UV-light irradiated HeLa cells or IL-1 treated PTC cells. The assay can be described thus: c-Jun phosphorylation by activated JNKs pulled down with GST-Jun from stressed cells. Particulars: 25 μM peptide. Type of assay: biochemical. The protocol: The effects of the L-TAT or L-TAT-IB1(s) peptides as defined herein on JNKs activated by stressful stimuli were evaluated using GST-Jun to pull down JNKs from UV-light irradiated HeLa cells or IL-1 treated PTC cells. PTC cells were cultured as described above. HeLa cells were cultured in DMEM medium supplemented with 10% Fetal Calf Serum, 100 μg/mL Streptomycin, 100 units/ml Penicillin and 2 mM Glutamine. One hour prior to being used for cell extract preparation, PTC cells were activated with IL-1 as described above, whereas HeLa cells were activated by UV-light (20 J/m^2). Cell extracts were prepared from control, UV-light irradiated HeLa cells and IL-1 treated TC-3 cells by scraping the cell cultures in lysis buffer (20 mM Tris-acetate, 1 mM EGTA, 1% Triton X-100, 10 mM p-nitrophenyl-phosphate, 5 mM sodium pyrophosphate, 10 mMP-glycerophosphate, 1 mM dithiothreitol). Debris were removed by centrifugation for five minutes at 15,000 rpm in an SS-34 Beckman rotor. One-hundred μg extracts were incubated for one hour at room temperature with one μg GST-jun (amino acids 1-89) and 10 μL of glutathione-agarose beads (Sigma). Following four washes with the scraping buffer, the beads were resuspended in the same buffer supplemented with L-TAT or L-TAT-IB1(s) peptides (25 μM) for 20 minutes. […]

Assay [5] concerns JNK mediated activation of c-Jun in HeLa cells. The assay can be described thus: GAL4-Jun luciferase reporter assay in HeLa cells with MKK4/MKK7 co-transfection. Particulars: 1 μM peptide, 16 hours. Type of assay: cell-based. An excerpt:
To determine whether the cell-permeable peptides as defined herein could block JNK signaling in vivo, we used a heterologous GAL4 system. HeLa cells, cultured as described above, were co-transfected with the 5×GAL-LUC reporter vector together with the GAL-Jun expression construct (Stratagene) comprising the activation domain of c-Jun (amino acids 1-89) linked to the GAL4 DNA-binding domain. Activation of JNK was achieved by the co-transfection of vectors expressing the directly upstream kinases MKK4 and MKK7 (see Whitmarsh et al, Science 285: 1573 (1999)). Briefly, 3×10^5 cells were transfected with the plasmids in 3.5-cm dishes using DOTAP (Boehringer Mannheim) following instructions from the manufacturer. For experiments involving GAL-Jun, 20 ng of the plasmid was transfected with 1 μg of the reporter plasmid pFR-Luc (Stratagene) and 0.5 μg of either MKK4 or MKK7 expressing plasmids. Three hours following transfection, cell media were changed and TAT and TAT-IB1(s) peptides (1 μM) were added. The luciferase activities were measured 16 hours later using the “Dual Reporter System” from Promega after normalization to protein content. […] Because HeLa cells express JNK1 and JNK2 isoforms but not JNK3, we transfected cells with JNK3.

Assay [6] relates to TC-3 cells. Put plainly: IL-1 induced pancreatic beta-cell death in TC-3 cells treated with peptides. Format: cell-based. Particulars: one single addition 1 μM, IL-1 10 ng/ml every two days. How it is done:
Inhibition of IL-1 induced pancreatic beta-cell death by the D-TAT-IB1(s) peptide was analyzed. TC-3 cells were incubated as described above for 30 minutes with one single addition of the indicated peptides (1, μM), then IL-1 (10 ng/ml) was added.
Apoptotic cells were then counted after two days of incubation with IL-1 by use of Propidium Iodide and Hoechst 33342 nuclear staining. A minimum of 1,000 cells were counted for each experiment.
Long term inhibition of IL-1P induced cell-death by the D-TAT-IB1 peptide was also analyzed. TC-3 cells were incubated as above for 30 minutes with one single addition of the indicated peptides (1 μM), then IL-1 (10 ng/ml) was added, followed by addition of the cytokine every two days. Apoptotic cells were then counted after 15 days of incubation with IL-1 by use of propidium iodide and Hoechst 33342 nuclear staining. […] A minimum of 1.000 cells were counted for each experiment.

The subject of assay [7] is AP-1 DNA binding complex. Put plainly: Gel retardation assay with AP-1 probe, HeLa cell nuclear extracts. Type of assay: cell-based. Particulars: in the presence of TNF-alpha, peptide added 30 minutes before.

T1 sequence (P53779 whole entry, species assumed): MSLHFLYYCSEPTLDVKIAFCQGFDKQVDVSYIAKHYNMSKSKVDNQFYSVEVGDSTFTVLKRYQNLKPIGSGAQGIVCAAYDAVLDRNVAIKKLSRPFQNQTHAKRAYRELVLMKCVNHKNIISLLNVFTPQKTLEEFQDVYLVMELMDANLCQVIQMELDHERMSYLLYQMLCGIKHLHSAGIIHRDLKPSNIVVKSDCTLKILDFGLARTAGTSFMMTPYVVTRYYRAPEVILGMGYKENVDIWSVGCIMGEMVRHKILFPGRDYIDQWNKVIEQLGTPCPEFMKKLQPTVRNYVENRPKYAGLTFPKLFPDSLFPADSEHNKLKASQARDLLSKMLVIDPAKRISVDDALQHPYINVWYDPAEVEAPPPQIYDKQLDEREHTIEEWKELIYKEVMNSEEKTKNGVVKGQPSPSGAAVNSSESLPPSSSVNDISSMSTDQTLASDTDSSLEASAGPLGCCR

Consider “NH2-GRKKRRQRRRPPRPKRPTTLNLFPQVPRSQD-COOH (H-GRKKRRQRRRPPRPKRPTTLNLFPQVPRSQD-OH) [L-TAT-IB1(s)]”, for which, in assay [1], the entry into cells entry was “efficiently and rapidly (less than five minutes) entered cells”. In assay [2], the “inhibiting JNK family phosphorylation of their target transcription factors, overall” value is given as “superior effects”. Besides, in assay [2] (dose response 0-25 μM), the “peptide dose at which nearly complete inhibition of c-Jun, ATF2 and Elk1 phosphorylation by JNKs was observed (as low as)” value came to 2.5 µM. In assay [3], the “inhibition of JNK3 phosphorylation of Elk1” value is listed as “absence of TAT-IB(s) inhibition”. The “prevention of phosphorylation of c-Jun by activated JNKs” value in assay [4] is “efficiently prevented phosphorylation of c-Jun”. In addition, in assay [5], the “activation of c-Jun following MKK4 and MKK7 mediated activation of JNK (luciferase)” value was “blocked activation of c-Jun”. Besides, the “long term protection from IL-1 induced cell-death, 15 days” value in assay [6] is given as “not”. Further, in assay [7], the “formation of the AP-1 DNA binding complex” value is “decrease the formation of the AP-1 DNA binding complex”.

Values taken from patent US9180159B2, “Use of cell-permeable peptide inhibitors of the JNK signal transduction pathway for the treatment of chronic or non-chronic inflammatory digestive diseases” (Xigen Inflammation Ltd., priority 2008, dated 2015).
